Patent publication US6368788B1 (priority 1987, dated 2002)

Columns and labels:
influenza = conditions: vs control group
Description: Sixty-six (66) hospitalized patients between the ages 18-20 years with confirmed influenza infections were admitted into the trial. Of the patients, 12 were determined to be severely infected, and the remaining 54 seriously infected and in need of hospitalization.

[1] = test system: acute respiratory infections; assay: Prophylaxis of respiratory infection in athletes in training, intranasal L-Glu-L-Trp; format: in vivo, human; conditions: After L-Glu-L-Trp

## L-Glu-L-Trp
influenza
  Lower incidence of respiratory complications: 3.5 times
[1]; Athletes
  B-Lymphocytes: 0.29 ± 0.02 ×10^9/L
  B-Lymphocytes % Normal Value: (74%)
  B-Lymphocytes (%): 13.6 ± 0.9 %
  Blasts w/Con-A: 53.4 ± 3.9%
  Blasts w/PHA: 42.5 ± 2.5 %
  C3: 0.8 ± 0.02 g/L
  Eosinophils: 0.23 ± 0.03 ×10^9/L
  Eosinophils (%): 4.2 ± 0.6%
  Eosinophils, % Normal Value: (96%)
  Granulocyte Cationic Proteins: 1.1 ± 0.04
  IgA: 1.8 ± 0.1 mg/mL
  IgA % Normal Value: (138%)
  IgG: 10.2 ± 0.6 mg/mL
  IgG % Normal Value: (84%)
  IgM: 1.1 ± 0.07 mg/mL
  IgM % Normal Value: (100%)
  Leukocytes: 6.1 ± 0.2 ×10^9/L
  Leukocytes % Normal Value: (109%)
  Leukocytes, Ratio Post-Treat/Pre-Treat Value: (1.09)
  Lymphocytes: 2.22 ± 0.1 ×10^9/L
  Lymphocytes % Normal Value: (104%)
  Lymphocytes, %: 34.9 ± 4.7%
  Monocytes: 0.59 ± 0.05 ×10^9/L
  Monocytes, %: 9.4 ± 0.5%
  Monocytes, % Normal Value: (137%)
  Neutrophils: 3.01 ± 0.2 ×10^9/L
  Neutrophils, %: 49.0 ± 1.5%
  Neutrophils, % Normal Value: (115%)
  Phagocytosis (yeast): 73.3 ± 1.5
  Salivary IgM: 0.65 g/L
  Salivary Lysozyme: 68.7 ± 1.3 %
  Salivary Secretory IgA: 0.056 ± 0.004 g/L
  Serum Lysozyme: 60.2 ± 1.6%
  Serum β-Lysin: 57.6 ± 3.2 %
  T-Lymphocytes: 1.55 ± 0.08 ×10^9/L
  T-Lymphocytes % Normal Value: (108%)
  T-Lymphocytes (%): 70.8 ± 1.4 %
  T-helper (CD4+): 1.25 ± 0.07 ×10^9/L
  T-helper (CD4+), %: 56.1 ± 1.3 %
  T-helper (CD4+), % Normal Value: (112%)
  T-suppressor (CD8+): 0.12 ± 0.02 ×10^9/L
  T-suppressor (CD8+), %: 5.9 ± 0.7%
  T-suppressor (CD8+), % Normal Value: (86%)
  Total Salivary IgA: 0.55 ± 0.05 g/L
[1]; Controls
  B-Lymphocytes: 0.41 ± 0.05 ×10^9/L
  B-Lymphocytes % Normal Value: (85%)
  B-Lymphocytes (%): 20.1 ± 1.5%
  Blasts w/Con-A: 66.8 ± 4.0 %
  Blasts w/PHA: 34.1 ± 3.1%
  C3: 0.7 ± 0.03 g/L
  Eosinophils: 0.22 ± 0.07 ×10^9/L
  Eosinophils (%): 4.0 ± 0.8%
  Eosinophils, % Normal Value: (85%)
  Granulocyte Cationic Proteins: 1.22 ± 0.1
  IgA: 1.8 ± 0.2 mg/mL
  IgA % Normal Value: (100%)
  IgG: 12.6 ± 0.7 mg/mL
  IgG % Normal Value: (104%)
  IgM: 1.0 ± 0.02 mg/mL
  IgM % Normal Value: (77%)
  Leukocytes: 5.6 ± 0.4 ×10^9/L
  Leukocytes % Normal Value: (97%)
  Leukocytes, Ratio Post-Treat/Pre-Treat Value: (0.85)
  Lymphocytes: 2.08 ± 0.2 ×10^9/L
  Lymphocytes % Normal Value: (99%)
  Lymphocytes, %: 37.8 ± 2.9%
  Monocytes: 0.58 ± 0.07 ×10^9/L
  Monocytes, %: 10.6 ± 1.2%
  Monocytes, % Normal Value: (88%)
  Neutrophils: 2.67 ± 0.3 ×10^9/L
  Neutrophils, %: 47.5 ± 2.9%
  Neutrophils, % Normal Value: (75%)
  Phagocytosis (yeast): 75.0 ± 1.7
  Salivary IgM: 0.73 g/L
  Salivary Lysozyme: 63.5 ± 3.0%
  Salivary Secretory IgA: 0.066 ± 0.009 g/L
  Serum Lysozyme: 50.6 ± 1.4 %
  Serum β-Lysin: 46.8 ± 5.4%
  T-Lymphocytes: 1.56 ± 0.1 ×10^9/L
  T-Lymphocytes % Normal Value: (108%)
